Data published in patent US7507860B2 (Pfizer Inc., priority 2004, dated 2009).
Numbering of substitutions follows the chain as printed.

Columns and labels:
[1] = target: T1, human androgen receptor (hAR) (Homo sapiens, UniProt P10275); experiment: Competitive binding analysis on baculovirus/Sf9 generated hAR extracts with 3H-DHT tracer; settings: AR Binding IC50 (nM), hAR extract, 1 nM 3H-DHT, one hour at 4° C; mean of multiple tests
T1 construct: made in house; host or cells: baculovirus/Sf9 insect cells (crude extract)
T1 sequence (P10275 1-920): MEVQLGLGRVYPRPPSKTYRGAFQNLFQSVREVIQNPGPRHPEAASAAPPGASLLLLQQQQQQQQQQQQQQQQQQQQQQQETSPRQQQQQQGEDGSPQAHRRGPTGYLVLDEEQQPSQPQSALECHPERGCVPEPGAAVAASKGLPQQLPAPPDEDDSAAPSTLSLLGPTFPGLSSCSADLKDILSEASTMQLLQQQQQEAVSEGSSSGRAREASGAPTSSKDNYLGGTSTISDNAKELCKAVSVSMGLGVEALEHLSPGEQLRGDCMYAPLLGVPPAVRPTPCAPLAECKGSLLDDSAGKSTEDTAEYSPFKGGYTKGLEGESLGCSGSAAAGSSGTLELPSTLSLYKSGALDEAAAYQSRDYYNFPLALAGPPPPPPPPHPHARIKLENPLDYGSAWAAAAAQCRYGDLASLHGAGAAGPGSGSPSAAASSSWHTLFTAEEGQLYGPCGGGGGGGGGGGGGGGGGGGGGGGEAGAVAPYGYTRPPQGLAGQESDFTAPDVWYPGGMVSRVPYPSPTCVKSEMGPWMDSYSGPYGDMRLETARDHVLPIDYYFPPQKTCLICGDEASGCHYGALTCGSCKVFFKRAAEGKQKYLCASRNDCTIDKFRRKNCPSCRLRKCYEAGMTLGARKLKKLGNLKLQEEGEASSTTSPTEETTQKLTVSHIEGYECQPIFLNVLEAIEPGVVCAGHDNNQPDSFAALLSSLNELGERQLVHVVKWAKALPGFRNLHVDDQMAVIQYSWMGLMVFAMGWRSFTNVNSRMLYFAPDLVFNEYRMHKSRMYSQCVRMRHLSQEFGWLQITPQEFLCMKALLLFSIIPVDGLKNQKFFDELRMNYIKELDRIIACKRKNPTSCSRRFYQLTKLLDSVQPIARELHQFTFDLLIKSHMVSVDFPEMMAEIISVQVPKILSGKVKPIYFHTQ
How it was run: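 Baculovirus/Sf9-expressed hAR extract incubated with hydroxylapatite, 1 nM 3H-DHT and decreasing compound concentrations for 1 h at 4 °C, then washed three times to remove unbound tracer. Bound 3H-DHT compared with no-competitor maximum; affinity given as concentration inhibiting half of maximum binding, mean of multiple tests.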

androgen receptor = target: T2, androgen receptor (Homo sapiens, UniProt P10275); experiment: AR antagonist cell assay (MDA-MB453-MMTV clone 54-19 luciferase reporter, 100 pM DHT); type: cell-based; settings: MDA-MB453-MMTV clone 54-19, inhibition of 100 pM DHT induction, 17 hr; mean of multiple tests; read-out: AR Cell IC50
T2 sequence (P10275 1-920 Q868H): T1 sequence (P10275 1-920) with Q868H
How it was run: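 MDA-MB453 cells stably carrying an MMTV-ARE firefly luciferase reporter were plated overnight at 10,000/well in phenol-red-free, charcoal-stripped serum medium. Cells were stimulated with 100 pM DHT (final) for 17 hr at 37 °C, and AR antagonism was read as luciferase signal; values are means of multiple tests.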

Compound	IC50 [1] [nM]	IC50 (androgen receptor) [nM]
CCCC(Oc1ccc(C#N)c(C(F)(F)F)c1)C(=O)NCc1ccccc1 (stereo not shown) [Example 4, 2-(4-Cyano-3-trifluoromethyl-phenoxy)-pentanoic acid benzylamide]	445	57
CC(C)CC(Oc1ccc(C#N)c(C(F)(F)F)c1)C(=O)NCc1ccccc1 (stereo not shown) [Example 1, 2-(4-Cyano-3-trifluoromethyl-phenoxy)-4-methyl-pentanoic acid benzylamide]	95	201
